This assay relates to human JAK1. The assay is described as follows: In vitro JAK kinase assay (HTRF), JAK1. It is filed as biochemical. Particulars: ratio of JAK2 IC50 to JAK1 IC50 at 1 mM ATP. On the procedure:
Compounds herein were tested for inhibitory activity of JAK targets according to the following in vitro assay described in Park et al., Analytical Biochemistry 1999, 269, 94-104. The catalytic domains of human JAK1 (a.a. 837-1142), JAK2 (a.a. 828-1132) and JAK3 (a.a. 781-1124) were expressed using baculovirus in insect cells and purified. The catalytic activity of JAK1, JAK2 or JAK3 was assayed by measuring the phosphorylation of a biotinylated peptide. The phosphorylated peptide was detected by homogenous time resolved fluorescence (HTRF). IC50s of compounds were measured for each kinase in the 40 μL reactions that contain the enzyme, ATP and 500 nM peptide in 50 mM Tris (pH 7.8) buffer with 100 mM NaCl, 5 mM DTT, and 0.1 mg/mL (0.01%) BSA. For the 1 mM IC50 measurements, ATP concentration in the reactions was 1 mM. Reactions were carried out at room temperature for 1 hour and then stopped with 20 μL 45 mM EDTA, 300 nM SA-APC, 6 nM Eu-Py20 in assay buffer (Perkin Elmer, Boston, Mass.). Binding to the Europium labeled antibody took place for 40 minutes and HTRF signal was measured on a PHERA star plate reader (BMG, Cary, N.C.). The Example compounds were each tested in the Example A assay (see Table 1 for data for the compounds of the examples as tested by the assay of Example A at 1 mM ATP).
A general note: Time-resolved FRET reads energy transfer from a long-lived donor to a nearby acceptor.
For the compound `N#CC[C@H]1CC[C@H](n2/c(=N/C#N)[nH]c3cnc4ccsc4c32)CC1.O=C(O)C(F)(F)F` [Example 25, {(2E)-1-[trans-4-(Cyanomethyl)cyclohexyl]-1,3-dihydro-2H-imidazo[4,5-d]thieno[3,2-b]pyridin-2-ylidene}cyanamide trifluoroacetate], the JAK2/JAK1 is reported as more than 6. Take `N#CC[C@H]1CC[C@H](n2c(C3CC3)nc3cnc4ccsc4c32)CC1` [Example 26, [trans-4-(2-Cyclopropyl-1H-imidazo[4,5-d]thieno[3,2-b]pyridin-1-yl)cyclohexyl]acetonitrile]: the JAK2/JAK1 is listed as more than 10. Take `CC(C)c1nc2cnc3ccsc3c2n1[C@H]1CC[C@H](CC#N)CC1` [Example 27, [trans-4-(2-Isopropyl-1H-imidazo[4,5-d]thieno[3,2-b]pyridin-1-yl)cyclohexyl]acetonitrile]: the JAK2/JAK1 is more than 10.

As to `N#CC[C@H]1CC[C@H](n2c(C3CNC3)nc3cnc4ccsc4c32)CC1` [Example 28, [trans-4-(2-Azetidin-3-yl-1H-imidazo[4,5-d]thieno[3,2-b]pyridin-1-yl)cyclohexyl]acetonitrile], the JAK2/JAK1 was more than 7. In the case of `CN1CC(c2nc3cnc4ccsc4c3n2[C@H]2CC[C@H](CC#N)CC2)C1` [Example 29, {trans-4-[2-(1-Methylazetidin-3-yl)-1H-imidazo[4,5-d]thieno[3,2-b]pyridin-1-yl]cyclohexyl}acetonitrile], the JAK2/JAK1 was more than 9. With `C[C@@H](O)c1nc2cnc3ccsc3c2n1C1CCCC(CCC#N)C1` (stereo partly drawn) [Example 32, 3-(3-{2-[(1R)-1-Hydroxyethyl]-1H-imidazo[4,5-d]thieno[3,2-b]pyridin-1-yl}cyclohexyl)propanenitrile] the figure was more than 10; with `Cc1nc2cnc3ccsc3n2c1-c1ccc(CC#N)cc1` [Example 33, [4-(7-Methylimidazo[1,2-a]thieno[3,2-e]pyrazin-8-yl)phenyl]acetonitrile], more than 7; with `Cc1nc2cnc3ccsc3c2n1[C@H]1CC[C@H](CC#N)OC1` [Example 38, [(2R,5S)-5-(2-Methyl-1H-imidazo[4,5-d]thieno[3,2-b]pyridin-1-yl)tetrahydro-2H-pyran-2-yl]acetonitrile], more than 10. Consider `CCc1nc2cnc3ccsc3c2n1[C@H]1CC[C@H](CC#N)OC1` [Example 39, [(2R,5S)-5-(2-Ethyl-1H-imidazo[4,5-d]thieno[3,2-b]pyridin-1-yl)tetrahydro-2H-pyran-2-yl]acetonitrile], for which the JAK2/JAK1 was more than 10. With `CC(C)c1nc2cnc3ccsc3c2n1[C@H]1CC[C@H](CC#N)OC1` [Example 42, [(2R,5S)-5-(2-Isopropyl-1H-imidazo[4,5-d]thieno[3,2-b]pyridin-1-yl)tetrahydro-2H-pyran-2-yl]acetonitrile] the figure was more than 10; with `N#CC[C@H]1CC[C@H](n2c(C3CC3)nc3cnc4ccsc4c32)CO1` [Example 43, [(2R,5S)-5-(2-Cyclopropyl-1H-imidazo[4,5-d]thieno[3,2-b]pyridin-1-yl)tetrahydro-2H-pyran-2-yl]acetonitrile], more than 10. The figure for `C[C@@H](O)c1nc2cnc3ccsc3c2n1[C@@H]1CC[C@@H](CC#N)OC1` [Example 44, ((2S,5R)-5-{2-[(1R)-1-Hydroxyethyl]-1H-imidazo[4,5-d]thieno[3,2-b]pyridin-1-yl}tetrahydro-2H-pyran-2-yl)acetonitrile] is more than 10; for `C[C@H](O)c1nc2cnc3ccsc3c2n1[C@H]1CC[C@H](CC#N)OC1` [Example 45, ((2R,5S)-5-{2-[(1S)-1-Hydroxyethyl]-1H-imidazo[4,5-d]thieno[3,2-b]pyridin-1-yl}tetrahydro-2H-pyran-2-yl)acetonitrile] it is more than 10; for `CCc1nc2cnc3ccsc3c2n1[C@H]1CC[C@H](CC#N)CC1` [Example 47, [trans-4-(2-Ethyl-1H-imidazo[4,5-d]thieno[3,2-b]pyridin-1-yl)cyclohexyl]acetonitrile] it is more than 10. Regarding `Cc1nc2cnc3ccsc3c2n1[C@H]1CC[C@H](CC#N)CC1` [Example 48, [trans-4-(2-Methyl-1H-imidazo[4,5-d]thieno[3,2-b]pyridin-1-yl)cyclohexyl]acetonitrile], the JAK2/JAK1 was more than 7.

For the compound `C[C@@H](O)c1nc2cnc3ccsc3c2n1[C@H]1CC[C@@H](CC#N)C1.O=C(O)C(F)(F)F` [Example 49, ((1R,3S)-3-{2-[(1R)-1-Hydroxyethyl]-1H-imidazo[4,5-d]thieno[3,2-b]pyridin-1-yl}cyclopentyl)acetonitrile trifluoroacetate], the JAK2/JAK1 is more than 10. `CCOC(=O)N1CCC[C@H](n2c([C@@H](C)O)nc3cnc4ccsc4c32)C1` [Example 50, Ethyl(3S)-3-{2-[(1R)-1-hydroxyethyl]-1H-imidazo[4,5-d]thieno[3,2-b]pyridin-1-yl}piperidine-1-carboxylate]: the JAK2/JAK1 is recorded as more than 10. The figure for `C[C@@H](O)c1nc2cnc3ccsc3c2n1[C@H]1CCCN(C(=O)CC#N)C1.O=C(O)C(F)(F)F` [Example 51, 3-((3S)-3-{2-[(1R)-1-Hydroxyethyl]-1H-imidazo[4,5-d]thieno[3,2-b]pyridin-1-yl}piperidin-1-yl)-3-oxopropanenitrile trifluoroacetate] is more than 10; for `C[C@@H](O)c1nc2cnc3ccsc3c2n1[C@H]1CCCN(C(=O)CCC(F)(F)F)C1` [Example 52, (1R)-1-{1-[(3S)-1-(4,4,4-Trifluorobutanoyl)piperidin-3-yl]-1H-imidazo[4,5-d]thieno[3,2-b]pyridin-2-yl}ethanol] it is more than 10. The figure for `C[C@@H](O)c1nc2cnc3ccsc3c2n1[C@H]1CCCN(C(=O)CCc2cn[nH]c2)C1` [Example 53, (1R)-1-(1-{(3S)-1-[3-(1H-Pyrazol-4-yl)propanoyl]piperidin-3-yl}-1H-imidazo[4,5-d]thieno[3,2-b]pyridin-2-yl)ethanol] is more than 10; for `C[C@@H](O)c1nc2cnc3ccsc3c2n1[C@H]1CCCN(C(=O)CCc2cccnc2)C1` [Example 54, (1R)-1-{1-[(3S)-1-(3-Pyridin-3-ylpropanoyl)piperidin-3-yl]-1H-imidazo[4,5-d]thieno[3,2-b]pyridin-2-yl}ethanol] it is more than 10; for `CC(CC(=O)N1CCC[C@H](n2c([C@@H](C)O)nc3cnc4ccsc4c32)C1)c1ccccc1` (stereo partly drawn) [Example 55, (1R)-1-{1-[(3S)-1-(3-Phenylbutanoyl)piperidin-3-yl]-1H-imidazo[4,5-d]thieno[3,2-b]pyridin-2-yl}ethanol] it is more than 10. With `C[C@@H](O)c1nc2cnc3ccsc3c2n1[C@H]1CCCN(CCC#N)C1` [Example 56, 3-((3S)-3-{2-[(1R)-1-Hydroxyethyl]-1H-imidazo[4,5-d]thieno[3,2-b]pyridin-1-yl}piperidin-1-yl)propanenitrile] the figure was more than 10; with `C[C@@H](O)c1nc2cnc3ccsc3c2n1[C@H]1CCCN(C(=O)CCc2ccccc2)C1` [Example 57], more than 10; with `C[C@@H](O)c1nc2cnc3ccsc3c2n1[C@H]1CCCN(C(=O)CCC#N)C1` [Example 58, 4-((3S)-3-{2-[(1R)-1-Hydroxyethyl]-1H-imidazo[4,5-d]thieno[3,2-b]pyridin-1-yl}piperidin-1-yl)-4-oxobutanenitrile], more than 10. Turning to `C[C@@H](O)c1nc2cnc3ccsc3c2n1[C@H]1CCCN(C(=O)CCCC#N)C1` [Example 59, 5-((3S)-3-{2-[(1R)-1-Hydroxyethyl]-1H-imidazo[4,5-d]thieno[3,2-b]pyridin-1-yl}piperidin-1-yl)-5-oxopentanenitrile], the JAK2/JAK1 is more than 10. Consider `C[C@@H](O)c1nc2cnc3ccsc3c2n1C1CCN(CCCC(F)(F)F)CC1` [Example 60, (1R)-1-{1-[1-(4,4,4-Trifluorobutyl)piperidin-4-yl]-1H-imidazo[4,5-d]thieno[3,2-b]pyridin-2-yl}ethanol], for which the JAK2/JAK1 is more than 10. The figure for `C[C@@H](O)c1nc2cnc3ccsc3c2n1C1CCN(CC#N)CC1.O=C(O)C(F)(F)F` [Example 61, (4-{2-[(1R)-1-Hydroxyethyl]-1H-imidazo[4,5-d]thieno[3,2-b]pyridin-1-yl}piperidin-1-yl)acetonitrile trifluoroacetate] is more than 10; for `C[C@@H](O)c1nc2cnc3ccsc3c2n1[C@H]1CCN(CCC#N)C1` [Example 62, 3-((3S)-3-{2-[(1R)-1-Hydroxyethyl]-1H-imidazo[4,5-d]thieno[3,2-b]pyridin-1-yl}pyrrolidin-1-yl)propanenitrile] it is more than 10; for `C[C@@H](O)c1nc2cnc3ccsc3c2n1[C@H]1CCN(C(=O)CC#N)C1` [Example 63, 3-((3S)-3-{2-[(1R)-1-Hydroxyethyl]-1H-imidazo[4,5-d]thieno[3,2-b]pyridin-1-yl}pyrrolidin-1-yl)-3-oxopropanenitrile] it is more than 6. With `C[C@@H](O)c1nc2cnc3ccsc3c2n1[C@H]1CCN(CCCC(F)(F)F)C1` [Example 64, (1R)-1-{1-[(3S)-1-(4,4,4-Trifluorobutyl)pyrrolidin-3-yl]-1H-imidazo[4,5-d]thieno[3,2-b]pyridin-2-yl}ethanol] the figure was more than 10.

(Values after patent publication US9908895B2, “Tricyclic fused thiophene derivatives as JAK inhibitors” (Incyte Corporation, priority 2012, dated 2018).)
